Assay results as given in PubChem BioAssay AID2060599 (Molecular Pharmacology Branch, DTP, NCI, 2025).
“And” between values parts separate entries of the source, which are not always exact repeats. Identical values can stand only once.

System: 817829-284-R-J1-PDC complex spheroids, viability
Assay: Anticancer human tumor 817829-284-R-J1-PDC patient-derived colon adenocarcinoma cell line growth inhibition [CLK]
Conditions: for viability, T/C: stronger effect = lower value
Summary of the method: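 Multi-cell-type spheroids combined patient-derived tumor cells with HUVEC endothelial cells and human mesenchymal stem cells. Paired agents were dosed in half-log steps down from about clinical Cmax, or from 10 microM where Cmax was unknown.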

[1] = curve of first compound, second compound 0.0316 µM
[2] = curve of first compound, second compound 0.1 µM
[3] = curve of first compound, second compound 0.316 µM
[4] = curve of first compound, second compound 1 µM
[5] = curve of first compound, second compound 3.16 µM
[6] = curve of first compound, second compound 10 µM
[7] = second compound 0.0316 µM, first compound 0.00316 µM
[8] = second compound 0.0316 µM, first compound 0.01 µM
[9] = second compound 0.0316 µM, first compound 0.0316 µM
[10] = second compound 0.0316 µM, first compound 0.1 µM
[11] = second compound 0.0316 µM, first compound 0.316 µM
[12] = second compound 0.0316 µM, first compound 1 µM
[13] = second compound 0.1 µM, first compound 0.00316 µM
[14] = second compound 0.1 µM, first compound 0.01 µM
[15] = second compound 0.1 µM, first compound 0.0316 µM
[16] = second compound 0.1 µM, first compound 0.1 µM
[17] = second compound 0.1 µM, first compound 0.316 µM
[18] = second compound 0.1 µM, first compound 1 µM
[19] = second compound 0.316 µM, first compound 0.00316 µM
[20] = second compound 0.316 µM, first compound 0.01 µM
[21] = second compound 0.316 µM, first compound 0.0316 µM
[22] = second compound 0.316 µM, first compound 0.1 µM
[23] = second compound 0.316 µM, first compound 0.316 µM
[24] = second compound 0.316 µM, first compound 1 µM
[25] = second compound 1 µM, first compound 0.00316 µM
[26] = second compound 1 µM, first compound 0.01 µM
[27] = second compound 1 µM, first compound 0.0316 µM
[28] = second compound 1 µM, first compound 0.1 µM
[29] = second compound 1 µM, first compound 0.316 µM
[30] = second compound 1 µM, first compound 1 µM
[31] = second compound 3.16 µM, first compound 0.00316 µM
[32] = second compound 3.16 µM, first compound 0.01 µM
[33] = second compound 3.16 µM, first compound 0.0316 µM
[34] = second compound 3.16 µM, first compound 0.1 µM
[35] = second compound 3.16 µM, first compound 0.316 µM
[36] = second compound 3.16 µM, first compound 1 µM
[37] = second compound 10 µM, first compound 0.00316 µM
[38] = second compound 10 µM, first compound 0.01 µM
[39] = second compound 10 µM, first compound 0.0316 µM
[40] = second compound 10 µM, first compound 0.1 µM
[41] = second compound 10 µM, first compound 0.316 µM
[42] = second compound 10 µM, first compound 1 µM
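Further: spheroids exposed to the agents for seven days before readout.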

In the case of `COc1c(OCCCN2CCOCC2)ccc2c3n(c(=NC(=O)c4cnc(N)nc4)nc12)CCN3` + CN1CCN(c2cc(C(=O)Nc3cc4cc(-c5cnn(C)c5)ccc4cn3)ccn2)CC1, the IC50 [1] is reported as 8.9 nM, the IC50 [2] is reported as under 3.16 nM and the IC50 [3] is reported as under 3.16 nM. It also gave an IC50 [4] of under 3.16 nM, an IC50 [5] of under 3.16 nM and an IC50 [6] of under 3.16 nM. The viability, T/C [7] was 52.3%, the viability, T/C [8] was 51.3% and the viability, T/C [9] was 33.9%. For the same compound, the viability, T/C [10] was 13.7%, the viability, T/C [11] was 3.82% and the viability, T/C [12] was 1.54%. The viability, T/C [13] was 20.9%, the viability, T/C [14] was 17.7% and the viability, T/C [15] was 11.5%. The viability, T/C [16] was 6.91%, the viability, T/C [17] was 1.95% and the viability, T/C [18] was 1.19%. The viability, T/C [19] was 1.52%, the viability, T/C [20] was 1.2% and the viability, T/C [21] was 0.85%. For the same compound, the viability, T/C [22] was 0.73%, the viability, T/C [23] was 0.56% and the viability, T/C [24] was 0.47%. The viability, T/C [25] was 0.08%, the viability, T/C [26] was 0.11% and the viability, T/C [27] was 0.12%. The viability, T/C [28] was 0.12%, the viability, T/C [29] was 0.11% and the viability, T/C [30] was 0.34%. For the same compound, the viability, T/C [31] was 0.17%, the viability, T/C [32] was 0.13% and the viability, T/C [33] was 0.13%. It also gave a viability, T/C [34] of 0.09%, a viability, T/C [35] of 0.17% and a viability, T/C [36] of 0.17%. It also gave a viability, T/C [37] of 0.03%, a viability, T/C [38] of 0.06% and a viability, T/C [39] of 0.1%. It also gave a viability, T/C [40] of 0.56%, a viability, T/C [41] of 0.13% and a viability, T/C [42] of 0.12%.

`C=CC(=O)Nc1cc(Nc2nccc(-c3cn(C)c4ccccc34)n2)c(OC)cc1N(C)CCN(C)C` was tested, and the viability, T/C (compound 0.000949 µM) was 108%, the viability, T/C (compound 0.003 µM) was 101% and the viability, T/C (compound 0.00949 µM) was 85.9%. For the same compound, the viability, T/C (compound 0.03 µM) was 72.9%, the viability, T/C (compound 0.0949 µM) was 99.5% and the viability, T/C (compound 0.3 µM) was 73.8%. The IC50 (curve of compound) was over 300 nM.

In the case of `C=C(F)C(=O)N1CCN(c2nc(OCC3CCCN3C)nc3c2CCN(c2cccc4cccc(Cl)c24)C3)CC1CC#N` (stereo not given), the viability, T/C (compound 0.0316 µM) is reported as 99.4% and 105%, the viability, T/C (compound 0.1 µM) is reported as 73% and 144% and the viability, T/C (compound 0.316 µM) is reported as 141% and 96.3%. The viability, T/C (compound 1 µM) was 77.1% and 84.6%, the viability, T/C (compound 3.16 µM) was 20.8% and 21.4% and the viability, T/C (compound 10 µM) was 0.08% and 0.14%. The IC50 (curve of compound) was 1770 nM and 1850 nM.

In the case of `NC(=O)C(=Cn1cnc(-c2cc(C(F)(F)F)cc(C(F)(F)F)c2)n1)c1cncnc1`, the viability, T/C (compound 0.00949 µM) is reported as 69%, the viability, T/C (compound 0.03 µM) is reported as 23.2% and the viability, T/C (compound 0.0949 µM) is reported as 17.2%. The viability, T/C (compound 0.3 µM) was 8.78%, the viability, T/C (compound 0.949 µM) was 3.63% and the viability, T/C (compound 3 µM) was 2.66%. The IC50 (curve of compound) was 15.7 nM.

`CCc1c2c(nc3ccc(O)cc13)-c1cc3c(c(=O)n1C2)COC(=O)[C@]3(O)CC` + CNC(=O)c1ccc(Nc2nc(OC3CCCC3)c3c(-c4ccc5nc(C)oc5c4)c[nH]c3n2)c(OC)c1 gave an IC50 [1] of under 3.16 nM, an IC50 [2] of under 3.16 nM and an IC50 [3] of under 3.16 nM. It also gave an IC50 [4] of under 3.16 nM, an IC50 [5] of under 3.16 nM and an IC50 [6] of under 3.16 nM. It also gave a viability, T/C [7] of 18.9%, a viability, T/C [8] of 16.6% and a viability, T/C [9] of 13.2%. The viability, T/C [10] was 9.4%, the viability, T/C [11] was 6.53% and the viability, T/C [12] was 4.13%. It also gave a viability, T/C [13] of 21.3%, a viability, T/C [14] of 17.2% and a viability, T/C [15] of 13.2%. For the same compound, the viability, T/C [16] was 9.71%, the viability, T/C [17] was 7.28% and the viability, T/C [18] was 4.24%. The viability, T/C [19] was 17.3%, the viability, T/C [20] was 17% and the viability, T/C [21] was 13%. The viability, T/C [22] was 7.86%, the viability, T/C [23] was 5.8% and the viability, T/C [24] was 3.35%. It also gave a viability, T/C [25] of 15.2%, a viability, T/C [26] of 12.4% and a viability, T/C [27] of 7.9%. It also gave a viability, T/C [28] of 5.92%, a viability, T/C [29] of 4.02% and a viability, T/C [30] of 2.78%. For the same compound, the viability, T/C [31] was 13.2%, the viability, T/C [32] was 9.13% and the viability, T/C [33] was 6.71%. It also gave a viability, T/C [34] of 6.34%, a viability, T/C [35] of 4.45% and a viability, T/C [36] of 2.73%. It also gave a viability, T/C [37] of 11.9%, a viability, T/C [38] of 8.01% and a viability, T/C [39] of 7.69%. For the same compound, the viability, T/C [40] was 4.85%, the viability, T/C [41] was 4.44% and the viability, T/C [42] was 2.57%.
